Data as given in the Kinase Knowledgebase extract (Sharma et al. 2016).
Values belong to the compound of their own block, whether it stands above or below them.

Experiments:
PIK3CD (Human) [1] = target: PIK3CD (Human) (UniProt O00329); test: Inhibition of PIK3CD Kinase Activity
PIK3CB (Human) [2] = target: PIK3CB (Human) (UniProt P42338); test: Inhibition of PIK3CB Kinase Activity
PIK3CA (human) = PIK3CA (human) (UniProt P42336); test: Inhibition of PIK3CA Kinase Activity
PIK3CG (human) [3] = target: PIK3CG (human) (UniProt P48736); test: Inhibition of PIK3CG Kinase Activity
Chain of PIK3CG (human) (P48736 whole entry, looked up): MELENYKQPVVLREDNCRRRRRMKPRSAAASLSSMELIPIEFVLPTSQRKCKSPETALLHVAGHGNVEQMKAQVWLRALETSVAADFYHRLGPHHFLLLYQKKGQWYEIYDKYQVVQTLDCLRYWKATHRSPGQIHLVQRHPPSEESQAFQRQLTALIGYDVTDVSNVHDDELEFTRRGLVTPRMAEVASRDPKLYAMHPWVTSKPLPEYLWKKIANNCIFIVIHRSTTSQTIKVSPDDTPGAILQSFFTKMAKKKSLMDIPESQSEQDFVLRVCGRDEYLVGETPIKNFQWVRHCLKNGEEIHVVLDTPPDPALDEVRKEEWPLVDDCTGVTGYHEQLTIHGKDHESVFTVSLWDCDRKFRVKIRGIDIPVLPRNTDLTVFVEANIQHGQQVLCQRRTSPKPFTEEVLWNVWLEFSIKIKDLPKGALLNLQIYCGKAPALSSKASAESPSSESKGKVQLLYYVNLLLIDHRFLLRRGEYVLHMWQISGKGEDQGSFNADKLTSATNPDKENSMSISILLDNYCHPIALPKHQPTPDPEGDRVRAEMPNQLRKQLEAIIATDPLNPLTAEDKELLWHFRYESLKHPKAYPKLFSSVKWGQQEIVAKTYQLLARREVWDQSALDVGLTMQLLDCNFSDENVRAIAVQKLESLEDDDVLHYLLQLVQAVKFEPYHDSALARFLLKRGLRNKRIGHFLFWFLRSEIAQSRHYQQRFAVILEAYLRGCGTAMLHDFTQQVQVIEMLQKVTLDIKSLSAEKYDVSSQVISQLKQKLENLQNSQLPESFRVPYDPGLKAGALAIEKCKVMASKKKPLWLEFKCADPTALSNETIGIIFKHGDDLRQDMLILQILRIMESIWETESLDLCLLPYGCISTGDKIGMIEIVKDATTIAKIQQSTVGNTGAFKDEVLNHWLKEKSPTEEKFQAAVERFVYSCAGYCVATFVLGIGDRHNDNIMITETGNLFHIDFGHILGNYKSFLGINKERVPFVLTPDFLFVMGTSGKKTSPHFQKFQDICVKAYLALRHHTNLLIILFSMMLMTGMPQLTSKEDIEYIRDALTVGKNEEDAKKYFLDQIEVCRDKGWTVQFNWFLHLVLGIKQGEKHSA

PIK3CD (Human) [4] = target: PIK3CD (Human) (UniProt O00329); test: Enzyme Assay
PIK3CG (human) [5] = target: PIK3CG (human) (UniProt P48736); test: Enzyme Assay
PIK3CG;PIK3CA (human) = PIK3CG;PIK3CA (human) (UniProt P48736); test: Antiproliferation of PC3-MM2 Cells; conditions: pc-3
Chain of PIK3CG;PIK3CA (human) (P48736 whole entry, looked up): as above

EGFR [6] = target: EGFR (UniProt P00533)
Chain of EGFR (P00533 whole entry, looked up): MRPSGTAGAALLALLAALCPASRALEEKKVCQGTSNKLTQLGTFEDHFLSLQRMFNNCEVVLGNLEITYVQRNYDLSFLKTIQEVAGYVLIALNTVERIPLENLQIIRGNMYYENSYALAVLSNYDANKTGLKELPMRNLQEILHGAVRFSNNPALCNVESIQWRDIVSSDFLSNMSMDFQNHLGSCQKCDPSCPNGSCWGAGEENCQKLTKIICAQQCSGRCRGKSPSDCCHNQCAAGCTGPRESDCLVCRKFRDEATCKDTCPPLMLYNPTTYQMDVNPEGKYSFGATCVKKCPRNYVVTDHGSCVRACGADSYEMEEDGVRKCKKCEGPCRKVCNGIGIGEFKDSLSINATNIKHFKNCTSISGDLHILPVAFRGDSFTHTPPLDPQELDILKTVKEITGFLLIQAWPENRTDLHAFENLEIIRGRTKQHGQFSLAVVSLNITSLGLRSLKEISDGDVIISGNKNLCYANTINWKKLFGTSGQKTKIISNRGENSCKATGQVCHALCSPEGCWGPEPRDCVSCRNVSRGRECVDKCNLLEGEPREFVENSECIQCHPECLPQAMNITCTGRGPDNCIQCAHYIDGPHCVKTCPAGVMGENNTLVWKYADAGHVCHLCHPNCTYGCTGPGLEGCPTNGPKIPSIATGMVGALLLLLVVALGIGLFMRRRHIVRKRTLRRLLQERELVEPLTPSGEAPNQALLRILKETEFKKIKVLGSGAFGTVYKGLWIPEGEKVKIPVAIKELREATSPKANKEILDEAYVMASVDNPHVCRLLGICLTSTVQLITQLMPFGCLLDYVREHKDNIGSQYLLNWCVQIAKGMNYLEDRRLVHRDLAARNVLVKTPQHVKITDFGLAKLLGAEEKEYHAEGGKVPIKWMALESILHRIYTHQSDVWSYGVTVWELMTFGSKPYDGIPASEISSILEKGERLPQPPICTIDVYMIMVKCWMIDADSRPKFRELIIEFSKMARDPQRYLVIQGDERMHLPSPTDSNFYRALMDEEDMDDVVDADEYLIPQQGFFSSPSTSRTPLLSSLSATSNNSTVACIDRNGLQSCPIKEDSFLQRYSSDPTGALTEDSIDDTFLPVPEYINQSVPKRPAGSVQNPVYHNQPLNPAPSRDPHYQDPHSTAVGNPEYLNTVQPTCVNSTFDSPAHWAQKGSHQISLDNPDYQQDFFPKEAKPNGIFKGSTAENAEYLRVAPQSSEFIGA

EGFR [7] = target: EGFR (UniProt P00533); conditions: cho.ir, concentration not given here
EGFR [8] = target: EGFR (UniProt P00533); remark: listed apart in the source
CDK2 (human) = CDK2 (human) (UniProt P24941); test: Enzyme Assay
PIK3CB (Human) [9] = target: PIK3CB (Human) (UniProt P42338); test: Cell-Based Assay
EGFR (Hamster) = EGFR (Hamster) (UniProt P00533)
Chain of EGFR (Hamster) (P00533 whole entry, looked up): as above

EGFR [10] = target: EGFR (UniProt P00533); remark: listed apart in the source
MAPK14 [11] = target: MAPK14 (UniProt Q16539); test: p38-alpha Kinase Inhibition
Chain of MAPK14 (Q16539 whole entry, looked up): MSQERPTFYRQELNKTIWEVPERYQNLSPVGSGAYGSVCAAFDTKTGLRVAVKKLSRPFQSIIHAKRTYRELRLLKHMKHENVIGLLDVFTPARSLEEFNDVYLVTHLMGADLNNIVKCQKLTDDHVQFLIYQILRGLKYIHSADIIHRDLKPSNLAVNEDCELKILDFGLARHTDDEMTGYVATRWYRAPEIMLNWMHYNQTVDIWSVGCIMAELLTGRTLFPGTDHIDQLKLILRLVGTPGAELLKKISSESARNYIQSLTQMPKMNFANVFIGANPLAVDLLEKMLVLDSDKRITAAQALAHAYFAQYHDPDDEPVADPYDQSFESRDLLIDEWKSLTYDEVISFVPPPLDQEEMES

PIK3CG = PIK3CG (UniProt P48736); test: Inhibition of PIK3CG Kinase Activity
Chain of PIK3CG (P48736 whole entry, looked up): as the sequence (P48736 whole entry, looked up) above

EGFR (mouse) = EGFR (mouse) (UniProt P00533)
MAPK14 [12] = target: MAPK14 (UniProt Q16539); test: Enzyme Assay
EGFR [13] = target: EGFR (UniProt P00533); conditions: concentration not given here

Chain of PIK3CB (Human) (P42338 whole entry, looked up): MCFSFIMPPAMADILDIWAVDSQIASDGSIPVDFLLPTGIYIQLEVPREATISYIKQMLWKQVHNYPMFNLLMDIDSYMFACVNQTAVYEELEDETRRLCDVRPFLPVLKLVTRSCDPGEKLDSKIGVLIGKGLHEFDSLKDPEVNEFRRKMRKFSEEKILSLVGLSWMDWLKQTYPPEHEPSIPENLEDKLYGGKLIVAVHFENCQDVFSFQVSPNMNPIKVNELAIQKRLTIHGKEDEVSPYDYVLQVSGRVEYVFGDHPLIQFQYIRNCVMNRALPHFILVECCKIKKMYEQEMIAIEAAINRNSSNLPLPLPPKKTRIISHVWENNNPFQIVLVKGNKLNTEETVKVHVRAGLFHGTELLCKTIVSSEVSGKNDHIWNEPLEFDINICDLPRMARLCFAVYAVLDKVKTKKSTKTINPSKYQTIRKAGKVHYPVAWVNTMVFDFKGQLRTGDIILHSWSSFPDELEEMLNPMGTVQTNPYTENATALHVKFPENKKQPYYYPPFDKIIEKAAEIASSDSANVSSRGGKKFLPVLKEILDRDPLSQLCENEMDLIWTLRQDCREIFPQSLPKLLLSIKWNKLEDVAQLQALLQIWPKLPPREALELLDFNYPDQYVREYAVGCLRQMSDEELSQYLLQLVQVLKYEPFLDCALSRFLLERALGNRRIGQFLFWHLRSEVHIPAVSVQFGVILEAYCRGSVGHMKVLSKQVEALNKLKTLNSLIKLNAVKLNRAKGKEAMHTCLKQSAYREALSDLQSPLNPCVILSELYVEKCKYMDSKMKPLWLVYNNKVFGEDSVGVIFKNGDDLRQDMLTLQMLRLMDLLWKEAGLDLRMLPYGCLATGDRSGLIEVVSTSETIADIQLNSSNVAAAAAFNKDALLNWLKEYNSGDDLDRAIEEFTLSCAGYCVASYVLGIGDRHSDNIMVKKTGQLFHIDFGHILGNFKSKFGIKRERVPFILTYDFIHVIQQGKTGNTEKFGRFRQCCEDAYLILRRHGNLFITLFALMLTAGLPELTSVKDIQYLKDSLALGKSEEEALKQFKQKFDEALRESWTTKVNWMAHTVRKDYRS

SMILES: COc1ccc2c(c1)c(/C=C1\Oc3cc(O)cc(O)c3C1=O)c1n2CCOC1
IC50 (PIK3CG;PIK3CA (human)): 1910 nM

SMILES: CC[C@H](Nc1nc(NCc2cccc(Cl)c2)c2ncn(C(C)C)c2n1)[C@@H](C)O
IC50 (CDK2 (human)): 100 nM

SMILES: CC[C@H](Nc1nc(NCc2ccc(C)nc2)c2ncn(C(C)C)c2n1)[C@@H](C)O
IC50 (CDK2 (human)): 3250 nM

SMILES: O=C(O)c1cccc(N=Cc2cc(O)ccc2O)c1
IC50 (EGFR (Hamster)): > 10000 nM

SMILES: COc1ccc2c(c1)c(/C=C1\Oc3cc(O)cc(O)c3C1=O)c1n2CCNC1
IC50 (PIK3CG;PIK3CA (human)): 2190 nM

SMILES: COC(=O)c1cc(N=Cc2ccccc2O)ccc1O
IC50 (EGFR (Hamster)): > 100000 nM

SMILES: COc1cc2c(Nc3cccc(Br)c3)ncnc2cn1
IC50 (EGFR [10]): 0.0026 nM

SMILES: O=C(c1ccc2[nH]c3c(c2c1)CCNC3)N1CCC(Cc2ccc(F)cc2)CC1
IC50 (MAPK14 [11]): 243 nM

SMILES: CON=C1NC(=O)/C(=C/c2ccc3c(c2)OCO3)S1
IC50 (PIK3CG): < 1000 nM

SMILES: C=CCN(/C=C1/C(=O)O[C@H](COC)[C@@]2(C)C1=C(O)C(=O)C1=C2[C@H](OC(C)=O)C[C@]2(C)C(O)CC[C@H]12)CC=C (some centres not stated)
IC50 (PIK3CD (Human) [1]): 131 nM
IC50 (PIK3CB (Human) [2]): 57 nM
IC50 (PIK3CA (human)): 14 nM
IC50 (PIK3CG (human) [3]): 148 nM

SMILES: CC1(C)CNC(=O)c2sc(N3CCOC[C@@H]3Cc3c[nH]c4ncccc34)nc2C1
IC50 (PIK3CD (Human) [1]): 18 nM
IC50 (PIK3CB (Human) [2]): 1010 nM
IC50 (PIK3CA (human)): 59 nM
IC50 (PIK3CG (human) [3]): 31 nM

SMILES: COC(=O)c1cc(N=Cc2ccc(O)cc2O)ccc1O
IC50 (EGFR (Hamster)): > 100000 nM

SMILES: CC1CC1C(=O)Nc1sc2c(Cl)c(O)ccc2c1C(N)=O (configuration not stated)
inhibition (EGFR [13]): > 50%

SMILES: Nc1ccc2ncnc(Nc3cccc(Br)c3)c2n1
IC50 (EGFR [10]): 7.6 nM

SMILES: Nc1cc2c(Nc3cccc(Br)c3)ncnc2cn1
IC50 (EGFR [10]): 0.13 nM

SMILES: N#CN=C1NC(=O)/C(=C/c2ccc3nccnc3c2)S1
IC50 (PIK3CG): < 1000 nM

SMILES: COC(=O)c1cc(NCc2cc(OC)ccc2OC)ccc1O
IC50 (EGFR (Hamster)): > 100000 nM

Second part, the compound after the results:

IC50 (PIK3CD (Human) [1]): 35 nM
IC50 (PIK3CB (Human) [2]): 446 nM
IC50 (PIK3CA (human)): 56 nM
IC50 (PIK3CG (human) [3]): 117 nM
IC50 (PIK3CD (Human) [4]): 34 nM
IC50 (PIK3CG (human) [5]): 112 nM
SMILES: Cc1nc2cnc3ccc(C#Cc4cccnc4)cc3c2n1-c1ccc(C(C)(C)C#N)cc1

IC50 (PIK3CG;PIK3CA (human)): 5630 nM
SMILES: COc1ccc2c(c1)c(/C=C1\Oc3cc(O)cc(O)c3C1=O)c1n2CCOC1=O

IC50 (EGFR [6]): > 10000 nM
SMILES: O=C(Nc1ccc(F)cc1)Nc1ncnc2nn3ccccc3c12

activation (EGFR [7]): < 5%
SMILES: O=C1C(O)=C(c2coc3ccccc23)C(=O)C(O)=C1c1ccccc1

IC50 (EGFR [8]): > 10000 nM
SMILES: CN(C)CCCn1nc(C2=C(c3cn(-c4cccs4)c4ccccc34)C(=O)NC2=O)c2ccccc21

IC50 (PIK3CB (Human) [9]; mda-468): > 10000 nM
IC50 (PIK3CB (Human) [9]; mda-mb-468): > 10000 nM
SMILES: C[C@H](Nc1ncnc(N)c1C#N)c1nc2cccc(Cl)c2nc1-c1ccccc1S(C)(=O)=O

IC50 (EGFR [8]): > 10000 nM
SMILES: CN(C)CCCn1nc(C2=C(c3cn(-c4ccc5ccccc5c4)c4ccccc34)C(=O)NC2=O)c2ccccc21

IC50 (EGFR [6]): > 10000 nM
SMILES: O=C(Nc1cccc([N+](=O)[O-])c1)Nc1ncnc2nn3ccccc3c12

IC50 (PIK3CB (Human) [9]; mda-468): 1950 nM
SMILES: C[C@H](Nc1ncnc(N)c1C#N)c1cc2ccc(F)cc2nc1-c1ccccn1

IC50 (EGFR [10]): 0.006 nM
SMILES: CN(C)c1cc2c(Nc3cccc(Br)c3)ncnc2cn1

IC50 (PIK3CB (Human) [9]; mda-468): 5970 nM
SMILES: C[C@H](Nc1ncnc(N)c1C#N)c1cc2cccc(F)c2nc1-c1ccccc1S(C)(=O)=O

IC50 (PIK3CG;PIK3CA (human)): 3400 nM
SMILES: COc1ccc2c(c1)c(/C=C1\Oc3cc(O)ccc3C1=O)c1n2CCC1

IC50 (MAPK14 [11]): 242 nM
SMILES: COc1c(C(=O)N2CCC(Cc3ccc(F)cc3)CC2)ccc2[nH]c3c(c12)CCNC3

ID50 (EGFR (mouse)): 4.4 nM
SMILES: CC[C@@](C)(CCCC(C)(C)SCCNC(=O)c1ccc(N=[N+]=[N-])cc1)c1ccc2c3c(c[nH]c13)C[C@@H](CO)NC(=O)[C@H](C(C)C)N2C

IC50 (PIK3CB (Human) [9]; mda-468): > 10000 nM
SMILES: C[C@H](Nc1ncnc(N)c1C#N)c1cc2ccc(F)cc2nc1-c1ccccc1S(C)(=O)=O

IC50 (PIK3CG;PIK3CA (human)): 1610 nM
SMILES: COc1ccc2c(c1)c(/C=C1\Oc3cc(O)cc(O)c3C1=O)c1n2CCN(C)C1

IC50 (EGFR [8]): > 10000 nM
SMILES: CN(C)CCCn1nc(C2=C(c3cn(-c4cccc5ccccc45)c4ccccc34)C(=O)NC2=O)c2ccccc21

IC50 (EGFR [8]): > 10000 nM
SMILES: CN(C)CCCn1nc(C2=C(c3cn(-c4csc5ccccc45)c4ccccc34)C(=O)NC2=O)c2ccccc21

IC50 (MAPK14 [12]): 190 nM
SMILES: Cc1cccc(C(=O)c2ccc(Nc3ccc(N)cc3)cc2Cl)c1

IC50 (PIK3CG;PIK3CA (human)): 5050 nM
SMILES: COc1ccc2c(c1)c(/C=C1\Oc3cc(O)cc(O)c3C1=O)c1n2CCN(C)C1=O

IC50 (EGFR [8]): > 10000 nM
SMILES: CN(C)CCCn1nc(C2=C(c3cn(-c4cnc5ccccc5c4)c4ccccc34)C(=O)NC2=O)c2ccccc21

IC50 (PIK3CB (Human) [9]; mda-468): 3800 nM
SMILES: C[C@H](Nc1ncnc(N)c1C#N)c1cc2ccc(F)cc2nc1-c1cccc(F)c1

IC50 (EGFR [10]): 0.008 nM
SMILES: CNc1cc2c(Nc3cccc(Br)c3)ncnc2cn1
